From patent US10174013B2, “Benzimidazole derivatives as kinase inhibitors” (SELVITA S.A., priority 2012, dated 2019) come the findings set out here.

For one series, the target named is FLT3wt (Homo sapiens (Human), UniProt P36888). As to the kind of experiment: ADP-Glo Kinase Assay, Flt3 wt. It is filed as biochemical. The settings on record: 1 μM compound; for inhibition at 1 µM: read-out: Flt3wt % INH (1 μM). The method, boiled down:
(§1)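 ADP-Glo luminescent ADP detection of human kinase activity in 5 mM MOPS pH 7.5, 5 mM MgCl2, 0.4 mM EDTA, 1.5 mM DTT. ATP at each kinase's apparent Km; compounds diluted to 1000 nM in assay buffer. Percent inhibition from normalised luminescence.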
Background: ADP-Glo turns the ADP formed in a reaction into a luminescent signal.

Another series concerns the target DYRK1 (Homo sapiens (Human), UniProt Q13627). Description: ADP-Glo Kinase Assay, DYRK1. The format is biochemical. To be noted: 1 μM compound; for inhibition at 1 µM: read-out: DYRK1A % INH (1 μM). The method, boiled down: as §1
For the next series, the target named is CDK2/E (Homo sapiens (Human), UniProt P24941). As to the kind of experiment: ADP-Glo Kinase Assay, CDK2/E. The settings on record: 1 μM compound; for inhibition at 1 µM: read-out: CDK2/E % INH (1 μM). It is filed as biochemical. The method, boiled down:
as §1

Another series deals with SW-480 cells. As to the kind of experiment: Growth inhibition, MTS assay, SW-480. The format is cell-based, Human. To be noted: 72 hours, MTS cell viability, read-out: SW-480 ED50.
The test system of the next series is MV4-11 xenograft. As to the kind of experiment: MV4-11 xenograft in immunocompromised mice. The format is in vivo. The method, boiled down:
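MV4-11 leukemic cells engrafted in NOD/scid or SCID/beige mice; oral dosing started at tumor volume approx. 50-200 mm^3, daily QD or BID for 2-3 weeks. Efficacy read as tumor growth inhibition (TGI), tolerability as body weight change (ΔBW).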

The test system of another series is MV4-11. Description: Combination study with anti-cancer agents, cell viability, MV4-11. To be noted: for ED50 value in MV4-11: single agent, used as fixed concentration in combination study; for Effect of combination: 72 hours.
In the next series the test system is Jeko-1 cells. Description: Growth inhibition, MTS assay, Jeko-1. To be noted: 72 hours, MTS cell viability, read-out: Jeko-1 ED50. The format is cell-based, Human. A general note: Tetrazolium dyes change colour on reduction, which living cells bring about.
The subject of the next series is KG-1 cells. Description: Growth inhibition, MTS assay, KG-1. The format is cell-based, Human. To be noted: 72 hours, MTS cell viability. An excerpt: (§2) The following cell lines, were obtained and used in tests as outlined below: • Human myelomonocytic, biphenotypic leukemia MV4-11 cells (harboring a Flt3-ITD mutation); • Human Acute Myeloid Leukemia MOLM16 cells; • Human Acute Myeloid Leukemia MOLM13 cells (harboring a Flt3-ITD mutation); • Human Myeloid Leukemia KG-1 cells; • Human erythroleukemia HEL92 cells; • Human mantle cell lymphoma Jeko-1 cells; • Human hepatocellular carcinoma HepG2 cells; and • Human colon adenocarcinoma SW-480 cells.
(§3) The assays were carried out according to the following protocol, which is described as an example for the MV4-11 cells:
(§4) Ten thousand MV4-11 cells were inoculated into each well of a 96-well microplate (manufactured by Corning Corp.) using Iscove's MDM medium (culture medium) containing 10% fetal calf serum (FCS). The same day, a dimethyl sulfoxide (DMSO) solution of each test compound prepared in a concentration of 10 mmol/L was further diluted with DMSO to the desired concentrations (0.1, 0.5, 1, 2.5, 5 and 10 micromol/L), and the diluted solution was added to each well. The individual wells were further cultured in 5% carbon dioxide at 37° C. for 72 hours. […] Briefly, 10 μl MTS (3-(4,5-Dimethyl-2-thiazolyl)-5-(carboxymethoxyphenyl)-2-(4-sulfophenyl)-2H-tetrazolium was added to each well, and culturing was performed in 5% carbon dioxide at 37° C. for 2 hours. After this incubation and using a microplate spectrophotometer (Synergy 2 multi-mode microplate reader (BioTek)), the absorbance of each well was measured at 490 nm. The value for cells not incubated with a test compound was designated as 100%. By comparing these values with the absorbance difference obtained at the well in which each test compound was added, the cell viability (% viability) after treatment with the test compound was calculated.

Another series relates to MOLM13 cells. Description: Growth inhibition, MTS assay, MOLM13. The settings on record: 72 hours, MTS cell viability, read-out: MOLM 13 ED50. It is filed as cell-based, Human.
Excerpt: as §2, §3, §4

Another series deals with FLT3-ITD. Description: ADP-Glo Kinase Assay, Flt3 ITD. It is filed as biochemical, Human. To be noted: 1 μM compound. As to the method: Compounds of the present invention were tested for their inhibitory activity against Pim-1, Pim-2, Pim-3, Flt3 wt, Flt3 ITD, CDK2/E and DYRK1. The testing of the compounds was carried out using the ADP-Glo™ Kinase Assay from Promega Corporation (Madison, Wis., USA).
The ADP-Glo™ Kinase Assay is a luminescent ADP detection assay to measure kinase activity by quantifying the amount of ADP produced during a kinase reaction. The kinase assay is performed in kinase assay buffer (5 mM MOPS, pH 7.5, 5 mM MgCl2, 0.4 mM EDTA, 1.5 mM DTT). Test samples initially dissolved in DMSO at 10 mM were diluted with the assay buffer to 1000 nM. A 30 μL volume/well of a mixture of substrates containing ATP (final ATP concentration in each kinase assay was equal to its apparent ATP Km).
The assay was performed in two steps: first, after the kinase reaction, an equal volume of ADP-Glo™ Reagent was added to terminate the kinase reaction and deplete the remaining ATP. Second, the Kinase Detection Reagent was added to simultaneously convert ADP to ATP and allowed the newly synthesized ATP to be measured using a luciferase/luciferin reaction. The luminescent signal generated was proportional to the ADP concentration produced and was correlated with kinase activity. A microplate spectrophotometer (Synergy 2 multi-mode microplate reader [BioTek]) was used for detecting the luminescence. The data was normalized and the percent of inhibition was obtained according to the following equation: […]

For another series, the system named is MOLM16 cells. As to the kind of experiment: Growth inhibition, MTS assay, MOLM16. The format is cell-based, Human. To be noted: MTS cell viability, read-out: MOLM 16 ED50.
Setting [1] is: MV4-11 xenograft, oral, 150 mg/Kg BID.
The mark [2] stands for this setting: MV4-11 xenograft, oral, doses as in Table 3.
Setting [3] is: MV4-11 xenograft, oral, 150 mg/Kg QD.
[4] abbreviates: MV4-11 xenograft, oral, 75 mg/Kg BID.
The mark [5] stands for this setting: MV4-11 xenograft, oral, 100 mg/Kg QD.

Structures can show the parent of a compound that is named as a salt. Where two headings read alike, the source gives them in different places.

Sequence of FLT3wt (P36888 27-993): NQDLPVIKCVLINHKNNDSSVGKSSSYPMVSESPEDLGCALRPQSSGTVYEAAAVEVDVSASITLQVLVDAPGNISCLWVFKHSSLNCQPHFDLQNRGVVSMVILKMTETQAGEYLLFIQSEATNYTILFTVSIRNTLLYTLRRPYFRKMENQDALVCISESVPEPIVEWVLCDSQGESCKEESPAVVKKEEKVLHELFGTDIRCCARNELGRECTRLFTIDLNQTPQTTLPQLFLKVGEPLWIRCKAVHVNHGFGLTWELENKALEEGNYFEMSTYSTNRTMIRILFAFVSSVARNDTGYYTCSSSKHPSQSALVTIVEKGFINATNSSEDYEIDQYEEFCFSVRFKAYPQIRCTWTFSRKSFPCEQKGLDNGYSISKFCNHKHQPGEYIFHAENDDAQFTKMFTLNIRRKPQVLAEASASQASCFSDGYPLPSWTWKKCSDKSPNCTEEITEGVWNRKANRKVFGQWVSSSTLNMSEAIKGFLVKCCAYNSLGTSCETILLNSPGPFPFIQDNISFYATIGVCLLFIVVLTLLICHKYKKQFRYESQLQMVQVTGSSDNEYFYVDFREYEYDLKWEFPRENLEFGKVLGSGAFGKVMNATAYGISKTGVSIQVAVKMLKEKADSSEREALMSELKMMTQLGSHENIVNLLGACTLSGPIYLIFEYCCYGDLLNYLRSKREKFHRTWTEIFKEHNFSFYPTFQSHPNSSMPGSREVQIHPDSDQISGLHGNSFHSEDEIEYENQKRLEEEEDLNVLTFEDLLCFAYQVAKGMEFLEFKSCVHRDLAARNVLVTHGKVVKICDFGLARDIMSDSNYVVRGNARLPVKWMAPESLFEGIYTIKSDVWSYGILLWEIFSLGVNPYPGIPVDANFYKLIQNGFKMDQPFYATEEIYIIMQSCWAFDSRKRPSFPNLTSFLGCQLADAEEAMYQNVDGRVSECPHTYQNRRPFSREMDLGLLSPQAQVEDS

As to `CCCn1c(N2CCNCC2)nc2c([N+](=O)[O-])c(Br)c(Br)cc21` [Example 1M], the “Flt3wt % INH (1 μM)” value at FLT3wt came out at 46%. Further, the “DYRK1A % INH (1 μM)” value at DYRK1 is given as more than 95%. In addition, on CDK2/E, the “CDK2/E % INH (1 μM)” value was less than 5%. Besides, in the series with SW-480 cells, the IC50 worked out at 2100 nM. Further, in the series on MV4-11 xenograft (setting [1]), the “TGI (tumor growth inhibition)” value is on record as 76% and the “ΔBW (body weight change)” value was 9.2%. For the same compound, in the series with MV4-11 xenograft (setting [2]), the “TGI (tumor growth inhibition)” value is “more than 70%”.

For `CC(C)n1c(C2CCNCC2)nc2c([N+](=O)[O-])c(Br)c(Br)cc21` [Example 26A, 5,6-dibromo-4-nitro-2-(piperidin-4-yl)-1-(propan-2-yl)-1H-1,3-benzodiazole], the inhibition at 1 µM on FLT3wt was 65%; on DYRK1 it was more than 95%; on CDK2/E, 36%. Moreover, the “ED50 value in MV4-11” value in the series with MV4-11 was determined as 100 nM. Further, the Effect of combination entry in the series on MV4-11 (with C (Cytarabine), MV4-11 (Acute myeloid leukemia)) is “Synergistic”; in the series on MV4-11 (with V (Vosaroxin), MV4-11 (Acute myeloid leukemia)), “Synergistic”. The IC50 in the series with Jeko-1 cells (Homo sapiens, JeKo-1) stood at 300 nM; in the series with MOLM13 cells (Homo sapiens, MOLM-13), 320 nM; in the series with MOLM16 cells (Homo sapiens, MOLM16, 72 h) it was 220 nM. Further, the “KG-1 ED50” value in the series on KG-1 cells came to 470 nM. For the same compound, in the series with FLT3-ITD, the “Flt3ITD % INH (1 μM)” value worked out at 93%. Besides, the “ΔBW (body weight change)” value in the series with MV4-11 xenograft (MV-4-11 xenograft, 26A 25 mg/Kg BID) is −6%; with MV4-11 xenograft (MV-4-11 xenograft, 26A 50 mg/Kg BID) it was −3%. Moreover, the “TGI (tumor growth inhibition)” value in the series with MV4-11 xenograft (MV-4-11 xenograft, 26A 25 mg/Kg BID, 15 days) turned out to be 77%; in the series on MV4-11 xenograft (MV-4-11 xenograft, 26A 50 mg/Kg BID, 15 days) it was 87%.

`Cl.O=[N+]([O-])c1c(Br)c(Br)cc2c1nc(N1CCNCC1)n2C1CCCC1` [Example 2D, 5,6-dibromo-1-cyclopentyl-4-nitro-2-(piperazin-1-yl)-1H-1,3-benzodiazole hydrochloride]: the values for the inhibition at 1 µM on FLT3wt, on DYRK1 and on CDK2/E were 55%, more than 95% and 21%, respectively. Further, in the series on SW-480 cells (Homo sapiens, SW480), the IC50 was determined as 600 nM. Moreover, the “TGI (tumor growth inhibition)” value with MV4-11 xenograft (setting [3]) is given as 88%; in the series with MV4-11 xenograft (setting [2]) it was “above 87%”. For the same compound, the “ΔBW (body weight change)” value in the series on MV4-11 xenograft (setting [3]) was −3.5%.

`CC(C)n1c(N2CCNCC2)nc2c([N+](=O)[O-])c(Br)c(Br)cc21` [Example 2A, 5,6-dibromo-4-nitro-2-(piperazin-1-yl)-1-(propan-2-yl)-1H-1,3-benzodiazole hydrochloride]: the results for the inhibition at 1 µM on FLT3wt, on DYRK1 and at CDK2/E were 66%, more than 95% and 44%, respectively. Further, the IC50 in the series on Jeko-1 cells (Homo sapiens, JeKo-1) is 400 nM; in the series on MOLM13 cells (Homo sapiens, MOLM-13), 250 nM; with SW-480 cells (Homo sapiens, SW480) it was 800 nM; in the series with MOLM16 cells (Homo sapiens, MOLM16, 72 h), 140 nM. Also, the “KG-1 ED50” value in the series on KG-1 cells came out at 630 nM. Besides, the “TGI (tumor growth inhibition)” value in the series with MV4-11 xenograft (setting [3]) is reported as 99%; with MV4-11 xenograft (setting [2]) it was “exceeding 97%”. Further, the “ΔBW (body weight change)” value with MV4-11 xenograft (setting [3]) is on record as −4.4%.

As for `CC(C)n1c(N2CC[C@@H](N)C2)nc2c(C#N)c(Br)c(Br)cc21` [Example 1BI], the inhibition at 1 µM on FLT3wt is 27%; at DYRK1, 79%; at CDK2/E, 22%. Also, the IC50 in the series with Jeko-1 cells (Homo sapiens, JeKo-1) stood at 700 nM; in the series on MOLM13 cells (Homo sapiens, MOLM-13) it was 3250 nM; with MOLM16 cells (Homo sapiens, MOLM16, 72 h), 80 nM. The “KG-1 ED50” value in the series with KG-1 cells amounted to 90 nM. Moreover, the “TGI (tumor growth inhibition)” value with MV4-11 xenograft (setting [3]) is listed as 87%; in the series on MV4-11 xenograft (setting [2]) it was “above 87%”. In addition, the “ΔBW (body weight change)” value in the series on MV4-11 xenograft (setting [3]) is 3.8%.

Consider `CCn1c(N2CCNCC2)nc2c([N+](=O)[O-])c(Br)c(Br)cc21` [Example 1A, 5,6-dibromo-1-ethyl-4-nitro-2-(piperazin-1-yl)-1H-1,3-benzodiazole hydrochloride], for which the values for the inhibition at 1 µM at FLT3wt, on DYRK1 and at CDK2/E were 26%, 66% and less than 5%, respectively. Besides, the “ED50 value in MV4-11” value with MV4-11 was found to be 500 nM. Moreover, the Effect of combination result in the series with MV4-11 (with CAL-101, MV4-11 (Acute myeloid leukemia)) is recorded as “Synergistic”. Besides, the IC50 with Jeko-1 cells (Homo sapiens, JeKo-1) is 800 nM; in the series on MOLM13 cells (Homo sapiens, MOLM-13), 700 nM; in the series on SW-480 cells (Homo sapiens, SW480) it was 2500 nM; with MOLM16 cells (Homo sapiens, MOLM16, 72 hours), 500 nM. The “Flt3ITD % INH (1 μM)” value with FLT3-ITD is given as 81%. For the same compound, the “TGI (tumor growth inhibition)” value was 73% in the series on MV4-11 xenograft (setting [4]) and “more than 70%” with MV4-11 xenograft (setting [2]). In addition, the “ΔBW (body weight change)” value in the series on MV4-11 xenograft (setting [4]) was found to be 5.4%.

`CC(C)n1c(N2CCNC[C@H]2C)nc2c([N+](=O)[O-])c(Br)c(Br)cc21` [Example 1AX]: on FLT3wt, the “Flt3wt % INH (1 μM)” value is 83%. Also, the “DYRK1A % INH (1 μM)” value on DYRK1 is listed as more than 95%. Also, the IC50 with Jeko-1 cells is more than 100 nM; in the series with MOLM13 cells, 60 nM; in the series with MOLM16 cells (72 hours), 20 nM. In addition, the “KG-1 ED50” value in the series on KG-1 cells is 120 nM. Besides, the “Flt3ITD % INH (1 μM)” value in the series with FLT3-ITD came out at 96%. In addition, the “TGI (tumor growth inhibition)” value is given as 97% in the series with MV4-11 xenograft (setting [5]) and “exceeding 97%” in the series with MV4-11 xenograft (setting [2]). In addition, the “ΔBW (body weight change)” value with MV4-11 xenograft (setting [5]) was −2.2%.
